Test results: US7482415B2, “Process for producing fluoroionomer, method for purification and concentration of the ionomer, and method of film formation” (Daikin Industries, Ltd., priority 2000, dated 2009)

Legend:
Type in all cases: physicochemical
[1] = Solubility test of S monomer in solvents
[2] = Dissolution test (Solvent D): dissolving power of acids for S monomer, visually evaluated; design: key: A: Completely dissolved; B: Partially dissolved or swelled; C: Not dissolved; conditions: small amount of S monomer
Protocol: (§1) Each solvent shown in the following table (50 cc) was placed in an individual test tube, and a small amount of S monomer was added to test the dissolving power.
The dissolving power was visually evaluated on the following scale of three. […] A: Completely dissolved; B: Partially dissolved or swelled; C: Not dissolved

[3] = Dissolution test (Solvent A): dissolving power of solvents for S monomer, visually evaluated; design: key: A: Completely dissolved; B: Partially dissolved or swelled; C: Not dissolved; conditions: small amount of S monomer
Protocol: as §1
The dissolving power was visually evaluated on the following scale of three. […] A: Completely dissolved; B: Partially dissolved or swelled; C: Not dissolved.

- Solubility ([1]; in Dimethoxyethane): 2700 mM
- Solubility ([1]; in Hexafluoroisopropanol): 30 mM
- Solubility ([1]; in Trifluoroacetic acid): 700 mM
- Solubility ([1]; in sec-Butanol): 770 mM
- Solubility ([1]; in t-Butanol): 530 mM
- Dissolving power ([2]; acid Acetic acid (50 cc)): A
- Dissolving power ([2]; acid CF2═CFCF2COOH (50 cc)): A
- Dissolving power ([2]; acid Hexafluoroisopropanol (50 cc)): A
- Dissolving power ([2]; acid Hydrofluoric acid (50 cc)): A
- Dissolving power ([2]; acid Trifluoroacetic acid (50 cc)): A
- Dissolving power ([3]; solvent Acetic acid (50 cc)): A
- Dissolving power ([3]; solvent Acetone (50 cc)): A
- Dissolving power ([3]; solvent Acetonitrile (50 cc)): A
- Dissolving power ([3]; solvent Benzene (50 cc)): C
- Dissolving power ([3]; solvent Carbon disulfide (50 cc)): C
- Dissolving power ([3]; solvent Chloroform (50 cc)): C
- Dissolving power ([3]; solvent Diethyl ether (50 cc)): C
- Dissolving power ([3]; solvent Dimethylformamide (50 cc)): A
- Dissolving power ([3]; solvent Diphenyl ether (50 cc)): C
- Dissolving power ([3]; solvent Ethanol (50 cc)): A
- Dissolving power ([3]; solvent Ethyl acetate (50 cc)): A
- Dissolving power ([3]; solvent Hexane (50 cc)): C
- Dissolving power ([3]; solvent Isopropanol (50 cc)): A
- Dissolving power ([3]; solvent Methanol (50 cc)): A
- Dissolving power ([3]; solvent Pyridine (50 cc)): A
- Dissolving power ([3]; solvent Tetrahydrofuran (50 cc)): A
- Dissolving power ([3]; solvent Trifluoroacetic acid (50 cc)): A
SMILES: O=S(=O)([O-])C(F)(F)C(F)(F)OC(F)=C(F)F.[Na+] [S monomer, CF2═CFOCF2CF2SO3Na]
